Results reported in DBAASP.
In brackets after ≈: the same amount, converted by molar mass.

Assays:
Assay in all cases: ≥ marks a high value that may be exact or a test limit, other limits are often not marked, values filed in µg/mL are converted to µM
[1] = system: Escherichia coli ATCC 25922
Pseudomonas aeruginosa = system: Pseudomonas aeruginosa
Escherichia coli = system: Escherichia coli
Staphylococcus aureus = system: Staphylococcus aureus
[2] = system: Staphylococcus aureus ATCC 25923
[3] = system: Pseudomonas aeruginosa ATCC 27853

SMILES | MIC [1] [µM] | MIC (Pseudomonas aeruginosa) [µM] | MIC (Escherichia coli) [µM] | other results
CC[C@H](C)[C@H](NC(=O)[C@H](CCCN=C(N)N)NC(=O)[C@H](Cc1c[nH]c2ccccc12)NC(=O)[C@@H](N)Cc1ccccc1)C(=O)N[C@@H](CCCN=C(N)N)C(=O)N[C@@H](CCCCN)C(=O)N[C@@H](Cc1c[nH]c2ccccc12)C(=O)N[C@@H](CCCN=C(N)N)C(N)=O [FWRIRKWR] | 25.7 (≈ 32 µg/mL) |  |  | 
CC[C@H](C)[C@H](NC(=O)CN)C(=O)NCC(=O)N[C@@H](CCCCN)C(=O)N[C@@H](Cc1ccccc1)C(=O)N[C@H](C(=O)N[C@@H](Cc1cnc[nH]1)C(=O)N[C@@H](CO)C(=O)N[C@@H](C)C(=O)N[C@@H](CCCCN)C(=O)N[C@@H](CCCN=C(N)N)C(=O)N[C@@H](Cc1ccccc1)C(=O)NCC(=O)N[C@@H](CCCN=C(N)N)C(=O)N[C@@H](C)C(=O)N[C@@H](Cc1c[nH]c2ccccc12)C(=O)N[C@H](C(=O)NCC(=O)N[C@@H](CCC(=O)O)C(=O)N[C@H](C(=O)N[C@@H](CCSC)C(=O)N[C@@H](CC(N)=O)C(=O)N[C@@H](CO)C(N)=O)[C@@H](C)CC)C(C)C)[C@@H](C)CC [GIGKFIHSAKRFGRAWVGEIMNS] |  | 75 (≈ 192 µg/mL) | 37.5 (≈ 96 µg/mL) | MIC (Staphylococcus aureus): > 75 µM
CC[C@H](C)[C@H](NC(=O)CN)C(=O)NCC(=O)N[C@@H](CCCCN)C(=O)N[C@@H](Cc1ccccc1)C(=O)N[C@@H](CC(C)C)C(=O)N[C@@H](Cc1cnc[nH]1)C(=O)N[C@@H](CO)C(=O)N[C@@H](C)C(=O)N[C@@H](CCCCN)C(=O)N[C@@H](CCCCN)C(=O)N[C@@H](Cc1ccccc1)C(=O)NCC(=O)N[C@@H](CCCCN)C(=O)N[C@@H](C)C(=O)N[C@@H](Cc1ccccc1)C(=O)N[C@H](C(=O)NCC(=O)N[C@@H](CCC(=O)O)C(=O)N[C@H](C(=O)N[C@@H](CCSC)C(=O)N[C@@H](CC(N)=O)C(=O)N[C@@H](CO)C(=O)NCC(=O)NCC(=O)N[C@@H](CO)C(N)=O)[C@@H](C)CC)C(C)C [GIGKFLHSAKKFGKAFVGEIMNSGGS] | 2.23 (≈ 5.94 µg/mL) |  |  | 
CC[C@H](C)[C@H](NC(=O)CN)C(=O)N[C@@H](CC(C)C)C(=O)N[C@@H](CO)C(=O)N[C@H](C(=O)N[C@H](C(=O)N[C@@H](CCCCN)C(=O)N[C@@H](CC(=O)O)C(=O)N[C@@H](Cc1ccccc1)C(=O)N[C@@H](C)C(=O)N[C@H](C(=O)N[C@@H](CCCCN)C(=O)N[C@@H](C)C(=O)NCC(=O)N[C@@H](CCCCN)C(=O)NCC(=O)N[C@@H](C)C(=O)N[C@@H](C)C(=O)N[C@@H](CCCCN)C(=O)NCC(=O)N[C@@H](CC(C)C)C(=O)N[C@@H](CC(C)C)C(=O)N[C@@H](CCC(=O)O)C(=O)N[C@@H](CCSC)C(=O)N[C@@H](C)C(=O)N[C@@H](CO)C(=O)N[C@H]1CSSC[C@@H](C(=O)O)NC(=O)[C@H](CCC(N)=O)NC(=O)CNC(=O)[C@H](CO)NC(=O)[C@H](CC(C)C)NC(=O)[C@H](CCCCN)NC1=O)[C@@H](C)CC)[C@@H](C)CC)[C@@H](C)O [GILSTIKDFAIKAGKGAAKGLLEMASCKLSGQC] | 3 (≈ 9.93 µg/mL) |  |  | 
CC[C@H](C)[C@H](NC(=O)CN)C(=O)N[C@@H](CCSC)C(=O)N[C@@H](CC(=O)O)C(=O)N[C@H](C(=O)N[C@H](C(=O)N[C@@H](CCCCN)C(=O)N[C@@H](CC(N)=O)C(=O)N[C@H](C(=O)N[C@@H](C)C(=O)N[C@@H](CCCCN)C(=O)N[C@@H](CC(N)=O)C(=O)N[C@@H](CC(C)C)C(=O)N[C@@H](C)C(=O)NCC(=O)N[C@@H](CCC(N)=O)C(=O)N[C@@H](CC(C)C)C(=O)N[C@@H](CC(C)C)C(=O)N[C@@H](CC(=O)O)C(=O)N[C@@H](CCCCN)C(=O)N[C@@H](CC(C)C)C(=O)N[C@@H](CCCCN)C(=O)N[C@H]1CSSC[C@@H](C(=O)O)NC(=O)[C@H](C)NC(=O)[C@H]([C@@H](C)O)NC(=O)[C@H]([C@@H](C)CC)NC(=O)[C@H](CCCCN)NC1=O)C(C)C)C(C)C)[C@@H](C)O [GIMDTVKNVAKNLAGQLLDKLKCKITAC] | 25 (≈ 74.7 µg/mL) |  |  | 
CC[C@H](C)[C@H](NC(=O)[C@H](CCSC)NC(=O)[C@@H](NC(=O)[C@H](CCC(=O)O)NC(=O)CNC(=O)[C@H](CC(C)C)NC(=O)[C@H](Cc1ccccc1)NC(=O)[C@H](C)NC(=O)[C@H](CCCCN)NC(=O)CNC(=O)[C@H](Cc1ccccc1)NC(=O)[C@H](CCCCN)NC(=O)CNC(=O)[C@H](C)NC(=O)[C@H](CO)NC(=O)[C@H](Cc1cnc[nH]1)NC(=O)[C@H](CC(C)C)NC(=O)[C@H](Cc1ccccc1)NC(=O)[C@H](CCCCN)NC(=O)CN)C(C)C)C(=O)NCC(=O)O [GKFLHSAGKFGKAFLGEVMIG] | > 100 |  |  | MIC [2]: > 100 µM
CC[C@H](C)[C@H](NC(=O)[C@H](CCCN=C(N)N)NC(=O)[C@H](CCCCN)NC(=O)[C@H](CC(C)C)NC(=O)[C@H](CC(C)C)NC(=O)CN)C(=O)N[C@@H](C)C(=O)N[C@H](C(=O)N[C@@H](CC(C)C)C(=O)N[C@@H](CC(C)C)C(N)=O)[C@@H](C)O [GLLKRIATLL] | 10 (≈ 11 µg/mL) |  |  | MIC [2]: 10 µM (≈ 11 µg/mL)
CC[C@H](C)[C@H](N)C(=O)N[C@@H](CC(C)C)C(=O)NCC(=O)N[C@@H](CCCCN)C(=O)N[C@@H](CC(C)C)C(=O)N[C@@H](Cc1c[nH]c2ccccc12)C(=O)N[C@@H](CCC(=O)O)C(=O)NCC(=O)N[C@H](C(=O)N[C@@H](CCCCN)C(=O)N[C@@H](CO)C(=O)N[C@H](C(N)=O)[C@@H](C)CC)C(C)C [ILGKLWEGVKSI] |  | > 25 |  | MIC [3]: > 25 µM
CC[C@H](C)[C@H](NC(=O)[C@H](C)NC(=O)CNC(=O)[C@@H](NC(=O)[C@H](CCCCN)NC(=O)[C@H](CCCCN)NC(=O)[C@@H](NC(=O)[C@H](C)NC(=O)CNC(=O)[C@H](Cc1c[nH]c2ccccc12)NC(=O)[C@H](CCCCN)NC(=O)[C@H](CCCCN)NC(=O)[C@@H](NC(=O)[C@H](C)NC(=O)CNC(=O)[C@@H](NC(=O)[C@@H](N)CCCCN)[C@@H](C)CC)[C@@H](C)CC)[C@@H](C)CC)[C@@H](C)CC)C(=O)N[C@@H](CCCCN)C(N)=O [KIGAIKKWGAIKKIGAIK] |  | > 133 | > 133 | MIC (Staphylococcus aureus): > 133 µM
CC[C@H](C)[C@H](NC(=O)[C@H](C)NC(=O)[C@H](CCCCN)NC(=O)CNC(=O)[C@@H](NC(=O)[C@H](CCCCN)NC(=O)[C@@H](NC(=O)[C@H](C)NC(=O)[C@H](CCCCN)NC(=O)CNC(=O)[C@H](Cc1c[nH]c2ccccc12)NC(=O)[C@H](CCCCN)NC(=O)[C@@H](NC(=O)[C@H](C)NC(=O)[C@H](CCCCN)NC(=O)CNC(=O)[C@@H](NC(=O)[C@@H](N)CCCCN)[C@@H](C)CC)[C@@H](C)CC)[C@@H](C)CC)[C@@H](C)CC)C(N)=O [KIGKAIKWGKAIKIGKAI] |  | 33.3 (≈ 64 µg/mL) | 16.6 (≈ 32 µg/mL) | MIC (Staphylococcus aureus): > 133 µM
CC(C)C[C@H](NC(=O)[C@H](CCCCN)NC(=O)[C@H](CCCCN)NC(=O)[C@H](C)NC(=O)[C@H](CC(C)C)NC(=O)[C@H](CCCCN)NC(=O)[C@H](C)NC(=O)[C@H](CC(C)C)NC(=O)[C@H](CCCCN)NC(=O)[C@H](CCCCN)NC(=O)[C@H](C)NC(=O)[C@H](CC(C)C)NC(=O)[C@@H](N)CCCCN)C(=O)N[C@@H](C)C(N)=O [KLAKKLAKLAKKLA] | 6 (≈ 9.14 µg/mL) |  |  | MIC [3]: 3 µM (≈ 4.57 µg/mL); MIC [2]: 6 µM (≈ 9.14 µg/mL)
CC(C)C[C@H](NC(=O)[C@H](CC(C)C)NC(=O)[C@@H](N)CCCCN)C(=O)N[C@@H](CCCN=C(N)N)C(=O)N[C@@H](CCCCN)C(=O)N[C@@H](CCCCN)C(=O)N[C@@H](Cc1ccccc1)C(=O)N[C@@H](Cc1c[nH]c2ccccc12)C(=O)N[C@@H](Cc1c[nH]c2ccccc12)C(=O)NCC(N)=O [KLLRKKFWWG] |  |  | 91.8 (≈ 125 µg/mL) | MIC [2]: 184 µM (≈ 250 µg/mL)
CC[C@H](C)[C@H](NC(=O)[C@H](Cc1ccccc1)NC(=O)[C@H](CO)NC(=O)[C@H](CCCCN)NC(=O)[C@H](Cc1c[nH]c2ccccc12)NC(=O)[C@@H](N)CCCCN)C(=O)N[C@@H](CCCCN)C(=O)N[C@@H](CCCCN)C(=O)N[C@@H](CCCCN)C(=O)N[C@H](C(=O)N[C@@H](CO)C(=O)N[C@@H](CCCCN)C(=O)N[C@@H](Cc1ccccc1)C(=O)N[C@@H](CC(C)C)C(=O)N[C@@H](Cc1cnc[nH]1)C(=O)N[C@@H](CO)C(=O)N[C@@H](C)C(=O)N[C@@H](CCCCN)C(=O)N[C@@H](CCCCN)C(=O)N[C@@H](Cc1ccccc1)C(N)=O)[C@@H](C)O [KWKSFIKKKTSKFLHSAKKF] |  | > 20.3 |  | 
CSCC[C@H](NC(=O)[C@H](CCCCN)NC(=O)[C@H](CCCCN)NC(=O)[C@H](CCCCN)NC(=O)[C@H](CCCN=C(N)N)NC(=O)[C@H](CCCN=C(N)N)NC(=O)[C@H](Cc1ccc(O)cc1)NC(=O)[C@@H](N)CCCN=C(N)N)C(=O)N[C@@H](CCCCN)C(=O)N[C@@H](CCCCN)C(N)=O [RYRRKKKMKK] | > 100 |  |  | MIC [3]: > 100 µM
CC[C@H](C)[C@H](NC(=O)[C@H](Cc1c[nH]c2ccccc12)NC(=O)[C@H](CCCCN)NC(=O)[C@@H]1CCCN1C(=O)[C@H](CC(C)C)NC(=O)[C@H](CCCCN)NC(=O)CNC(=O)[C@@H](NC(=O)[C@@H](NC(=O)[C@@H](N)CO)[C@@H](C)O)[C@@H](C)CC)C(=O)N[C@H](C(=O)N[C@@H](CCCCN)C(=O)N[C@H](C(=O)N[C@H](C(=O)N[C@@H](CC(N)=O)C(=O)N[C@@H](CCCCN)C(=O)N[C@@H](Cc1ccccc1)C(=O)N[C@H](C(=O)N[C@@H](CCCCN)C(=O)N[C@@H](CCCCN)C(=O)O)[C@@H](C)O)C(C)C)[C@@H](C)O)[C@@H](C)CC [STIGKLPKWIIKTVNKFTKK] |  |  | 2.8 (≈ 6.53 µg/mL) | 
CC(C)C[C@H](NC(=O)[C@H](Cc1ccccc1)NC(=O)[C@@H]1CCCN1C(=O)[C@H](Cc1c[nH]c2ccccc12)NC(=O)[C@H](Cc1c[nH]c2ccccc12)NC(=O)[C@H](C)NC(=O)[C@@H]1CCCN1C(=O)[C@H](Cc1ccccc1)NC(=O)[C@H](CCCN=C(N)N)NC(=O)[C@H](CCCN=C(N)N)NC(=O)[C@@H](N)C(C)C)C(=O)N[C@@H](CCCN=C(N)N)C(=O)N[C@@H](CCCN=C(N)N)C(N)=O [VRRFPAWWPFLRR] | 45.3 (≈ 80.8 µg/mL) |  |  | 
